Test results reported in ChEMBL document CHEMBL2073961, “Reduced hepatic uptake and intestinal excretion of organic cations in mice with a targeted disruption of the organic cation transporter 1 (Oct1 [Slc22a1]) gene” (Mol Cell Biol, 2001).

biological target: T1, Solute carrier family 22 member 1 (Mus musculus, UniProt O08966); experiment: TP_TRANSPORTER: decrease in liver concentration in Oct1 -/- mouse; assay type: functional, organism-based; conditions: in vivo
T1 sequence (O08966 whole entry): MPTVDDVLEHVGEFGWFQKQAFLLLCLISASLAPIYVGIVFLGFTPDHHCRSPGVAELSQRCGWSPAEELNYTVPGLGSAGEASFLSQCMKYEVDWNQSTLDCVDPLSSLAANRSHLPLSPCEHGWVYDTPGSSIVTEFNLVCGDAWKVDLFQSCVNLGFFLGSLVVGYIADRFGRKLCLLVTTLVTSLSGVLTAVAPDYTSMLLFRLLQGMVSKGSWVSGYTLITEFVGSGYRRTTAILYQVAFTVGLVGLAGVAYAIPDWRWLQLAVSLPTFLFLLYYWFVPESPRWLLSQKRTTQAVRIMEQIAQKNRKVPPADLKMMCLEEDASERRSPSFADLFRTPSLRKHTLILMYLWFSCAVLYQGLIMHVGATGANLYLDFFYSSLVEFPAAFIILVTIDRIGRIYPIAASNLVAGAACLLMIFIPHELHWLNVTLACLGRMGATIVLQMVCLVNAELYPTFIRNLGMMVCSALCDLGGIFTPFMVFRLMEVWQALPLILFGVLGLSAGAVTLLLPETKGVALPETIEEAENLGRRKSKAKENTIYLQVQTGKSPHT

Row | Activity | SMILES
1 | substrate [+] | N=C(N)NCc1cccc(I)c1 [IOBENGUANE]
2 | substrate [+] | CC[N+](CC)(CC)CC [TETRYLAMMONIUM]

Row | SMILES | Activity
3 | C[n+]1ccc(-c2ccccc2)cc1 | substrate [+]
